According to PubChem BioAssay (NCI):
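Cells were grown in 96-well plates and exposed to each compound for 48 hours at five concentrations; endpoints were interpolated linearly between bracketing concentrations, or set to the highest concentration if not reached. GI50 = concentration required for 50% inhibition of growth. Definition used: TGI = concentration required for complete inhibition of growth.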

Key:
Assay in all cases: inhibition of tumour cell growth, NCI panel, 48 h
PC-3 prostate = tested on: PC-3 prostate
HT29 colon = tested on: HT29 colon
HCT-116 colon = tested on: HCT-116 colon
M14 melanoma = tested on: M14 melanoma
A549 NSCLC = tested on: A549 NSCLC
MCF7 breast = tested on: MCF7 breast
T-47D breast = tested on: T-47D breast
K-562 leukemia = tested on: K-562 leukemia
SK-MEL-2 melanoma = tested on: SK-MEL-2 melanoma
NCI-H226 lung = tested on: NCI-H226 lung
786-0 renal = tested on: 786-0 renal
MOLT-4 leukemia = tested on: MOLT-4 leukemia
CCRF-CEM leukemia = tested on: CCRF-CEM leukemia
HS 578T breast = tested on: HS 578T breast
DU-145 prostate = tested on: DU-145 prostate
EKVX NSCLC = tested on: EKVX NSCLC
HL-60(TB) leukemia = tested on: HL-60(TB) leukemia
SNB-75 CNS = tested on: SNB-75 CNS
HOP-62 NSCLC = tested on: HOP-62 NSCLC
UO-31 renal = tested on: UO-31 renal
SK-MEL-28 melanoma = tested on: SK-MEL-28 melanoma
SR leukemia = tested on: SR leukemia
RXF 393 renal = tested on: RXF 393 renal
HOP-92 NSCLC = tested on: HOP-92 NSCLC
OVCAR-4 ovarian = tested on: OVCAR-4 ovarian
SNB-19 CNS = tested on: SNB-19 CNS
SN12C renal = tested on: SN12C renal
HCT-15 colon = tested on: HCT-15 colon
OVCAR-8 ovarian = tested on: OVCAR-8 ovarian
SK-OV-3 ovarian = tested on: SK-OV-3 ovarian
COLO 205 colon = tested on: COLO 205 colon
NCI-H460 lung = tested on: NCI-H460 lung
MDA-MB-435 = tested on: MDA-MB-435
LOX IMVI melanoma = tested on: LOX IMVI melanoma
OVCAR-3 ovarian = tested on: OVCAR-3 ovarian
TK-10 renal = tested on: TK-10 renal
IGROV1 ovarian = tested on: IGROV1 ovarian
RPMI-8226 leukemia = tested on: RPMI-8226 leukemia
SW-620 colon = tested on: SW-620 colon
U251 CNS = tested on: U251 CNS
KM12 colon = tested on: KM12 colon
UACC-257 melanoma = tested on: UACC-257 melanoma
BT-549 breast = tested on: BT-549 breast
MDA-MB-231 breast = tested on: MDA-MB-231 breast
ACHN renal = tested on: ACHN renal
CAKI-1 renal = tested on: CAKI-1 renal
NCI-H23 lung = tested on: NCI-H23 lung
NCI-H522 lung = tested on: NCI-H522 lung
OVCAR-5 ovarian = tested on: OVCAR-5 ovarian
A498 renal = tested on: A498 renal
SF-295 CNS = tested on: SF-295 CNS
MALME-3M melanoma = tested on: MALME-3M melanoma
SK-MEL-5 melanoma = tested on: SK-MEL-5 melanoma
SF-268 CNS = tested on: SF-268 CNS
HCC-2998 colon = tested on: HCC-2998 colon
NCI/ADR-RES ovarian = tested on: NCI/ADR-RES ovarian
SF-539 CNS = tested on: SF-539 CNS

`CN1CCN(C(=O)C(C)(C)c2ccc(C(=O)Nc3cn4cc(-c5ccncc5)ccc4n3)cc2)CC1` was tested, and the GI50 (PC-3 prostate) was 382 nM, the TGI (PC-3 prostate) was > 70.2 µM and the GI50 (HT29 colon) was 358 nM. The TGI (HT29 colon) was > 94.9 µM, the GI50 (HCT-116 colon) was 80.2 nM and the TGI (HCT-116 colon) was > 100 µM. For the same compound, the GI50 (M14 melanoma) was 389 nM, the TGI (M14 melanoma) was 22.8 µM and the GI50 (A549 NSCLC) was 214 nM. For the same compound, the TGI (A549 NSCLC) was > 100 µM, the GI50 (MCF7 breast) was 282 nM and the TGI (MCF7 breast) was > 100 µM. The GI50 (T-47D breast) was 201 nM, the TGI (T-47D breast) was > 100 µM and the GI50 (K-562 leukemia) was 194 nM. For the same compound, the TGI (K-562 leukemia) was > 100 µM, the GI50 (SK-MEL-2 melanoma) was 316 nM and the TGI (SK-MEL-2 melanoma) was 1620 nM. The GI50 (NCI-H226 lung) was 320 nM, the TGI (NCI-H226 lung) was 2510 nM and the GI50 (786-0 renal) was 539 nM. For the same compound, the TGI (786-0 renal) was > 100 µM, the GI50 (MOLT-4 leukemia) was 319 nM and the TGI (MOLT-4 leukemia) was > 46.7 µM. For the same compound, the GI50 (CCRF-CEM leukemia) was 280 nM, the TGI (CCRF-CEM leukemia) was > 100 µM and the GI50 (HS 578T breast) was 327 nM. It also gave a TGI (HS 578T breast) of 3.66 µM, a GI50 (DU-145 prostate) of 319 nM and a TGI (DU-145 prostate) of 35.2 µM. For the same compound, the GI50 (EKVX NSCLC) was 491 nM, the TGI (EKVX NSCLC) was > 100 µM and the GI50 (HL-60(TB) leukemia) was 371 nM. It also gave a TGI (HL-60(TB) leukemia) of 3.55 µM, a GI50 (SNB-75 CNS) of 167 nM and a TGI (SNB-75 CNS) of 1570 nM. The GI50 (HOP-62 NSCLC) was 307 nM, the TGI (HOP-62 NSCLC) was > 53 µM and the GI50 (UO-31 renal) was 272 nM. It also gave a TGI (UO-31 renal) of 1300 nM, a GI50 (SK-MEL-28 melanoma) of 343 nM and a TGI (SK-MEL-28 melanoma) of 6.47 µM. The GI50 (SR leukemia) was 135 nM, the TGI (SR leukemia) was 4.7 µM and the GI50 (RXF 393 renal) was 316 nM. It also gave a TGI (RXF 393 renal) of 1010 nM, a GI50 (HOP-92 NSCLC) of 366 nM and a TGI (HOP-92 NSCLC) of 7.11 µM. The GI50 (OVCAR-4 ovarian) was 350 nM, the TGI (OVCAR-4 ovarian) was > 100 µM and the GI50 (SNB-19 CNS) was 239 nM. The TGI (SNB-19 CNS) was > 100 µM, the GI50 (SN12C renal) was 267 nM and the TGI (SN12C renal) was > 100 µM. For the same compound, the GI50 (HCT-15 colon) was 312 nM, the TGI (HCT-15 colon) was 7.2 µM and the GI50 (OVCAR-8 ovarian) was 347 nM. For the same compound, the TGI (OVCAR-8 ovarian) was > 100 µM, the GI50 (SK-OV-3 ovarian) was 275 nM and the TGI (SK-OV-3 ovarian) was 17.5 µM. For the same compound, the GI50 (COLO 205 colon) was 289 nM, the GI50 (NCI-H460 lung) was 303 nM and the TGI (NCI-H460 lung) was 34.3 µM. It also gave a GI50 (MDA-MB-435) of 367 nM, a TGI (MDA-MB-435) of 17.5 µM and a GI50 (LOX IMVI melanoma) of 215 nM. It also gave a TGI (LOX IMVI melanoma) of 934 nM, a GI50 (OVCAR-3 ovarian) of 126 nM and a TGI (OVCAR-3 ovarian) of 431 nM. For the same compound, the GI50 (TK-10 renal) was 484 nM, the TGI (TK-10 renal) was > 100 µM and the GI50 (IGROV1 ovarian) was 220 nM. It also gave a TGI (IGROV1 ovarian) of 6 µM, a GI50 (RPMI-8226 leukemia) of 201 nM and a TGI (RPMI-8226 leukemia) of 1350 nM. For the same compound, the GI50 (SW-620 colon) was 185 nM, the TGI (SW-620 colon) was > 56 µM and the GI50 (U251 CNS) was 332 nM. The TGI (U251 CNS) was > 100 µM, the GI50 (KM12 colon) was 175 nM and the TGI (KM12 colon) was > 60.3 µM. For the same compound, the GI50 (UACC-257 melanoma) was 296 nM, the TGI (UACC-257 melanoma) was 15.1 µM and the GI50 (BT-549 breast) was 332 nM. For the same compound, the TGI (BT-549 breast) was 14.9 µM, the GI50 (MDA-MB-231 breast) was 413 nM and the TGI (MDA-MB-231 breast) was > 54.1 µM. It also gave a GI50 (ACHN renal) of 238 nM, a TGI (ACHN renal) of 1480 nM and a GI50 (CAKI-1 renal) of 193 nM. The TGI (CAKI-1 renal) was > 100 µM, the GI50 (NCI-H23 lung) was 307 nM and the TGI (NCI-H23 lung) was 19.2 µM. The GI50 (NCI-H522 lung) was 220 nM, the TGI (NCI-H522 lung) was 13.4 µM and the GI50 (OVCAR-5 ovarian) was 405 nM. The TGI (OVCAR-5 ovarian) was 7.16 µM, the GI50 (A498 renal) was 157 nM and the TGI (A498 renal) was 418 nM. For the same compound, the GI50 (SF-295 CNS) was 482 nM, the TGI (SF-295 CNS) was 30.8 µM and the GI50 (MALME-3M melanoma) was 260 nM. The TGI (MALME-3M melanoma) was 773 nM, the GI50 (SK-MEL-5 melanoma) was 188 nM and the TGI (SK-MEL-5 melanoma) was 382 nM. For the same compound, the GI50 (SF-268 CNS) was 380 nM, the TGI (SF-268 CNS) was 10.5 µM and the GI50 (HCC-2998 colon) was 502 nM. For the same compound, the TGI (HCC-2998 colon) was 9.7 µM, the GI50 (NCI/ADR-RES ovarian) was 917 nM and the TGI (NCI/ADR-RES ovarian) was > 100 µM. It also gave a GI50 (SF-539 CNS) of 246 nM and a TGI (SF-539 CNS) of 1170 nM.
